# Source: US20160237044A1, “SUBSTITUTED PHENYLALANINE DERIVATIVES” (BAYER PHARMA AKTIENGESELLSCHAFT, priority 2013, published 2016)
# Counter-ions that a name gives are not always drawn. Like-named read-outs stand apart in the source and are kept apart here.
# Columns and labels:
# human factor XIa = target: T1, human factor XIa (Homo sapiens, UniProt P03951); assay: Measurement of FXIa inhibition (fluorogenic peptide substrate Boc-Glu(OBzl)-Ala-Arg-AMC); assay type: biochemical
# T1 construct: purchased Kordia
# T1 sequence (P03951 388-625 limits assumed): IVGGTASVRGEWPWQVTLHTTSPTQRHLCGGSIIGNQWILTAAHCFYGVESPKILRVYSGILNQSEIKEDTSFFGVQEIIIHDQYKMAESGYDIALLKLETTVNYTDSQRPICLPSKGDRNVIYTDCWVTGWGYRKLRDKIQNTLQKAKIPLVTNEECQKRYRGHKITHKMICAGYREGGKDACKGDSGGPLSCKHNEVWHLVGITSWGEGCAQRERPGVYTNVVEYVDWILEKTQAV
# T1 sequence (P03951 19-387 partner limits assumed): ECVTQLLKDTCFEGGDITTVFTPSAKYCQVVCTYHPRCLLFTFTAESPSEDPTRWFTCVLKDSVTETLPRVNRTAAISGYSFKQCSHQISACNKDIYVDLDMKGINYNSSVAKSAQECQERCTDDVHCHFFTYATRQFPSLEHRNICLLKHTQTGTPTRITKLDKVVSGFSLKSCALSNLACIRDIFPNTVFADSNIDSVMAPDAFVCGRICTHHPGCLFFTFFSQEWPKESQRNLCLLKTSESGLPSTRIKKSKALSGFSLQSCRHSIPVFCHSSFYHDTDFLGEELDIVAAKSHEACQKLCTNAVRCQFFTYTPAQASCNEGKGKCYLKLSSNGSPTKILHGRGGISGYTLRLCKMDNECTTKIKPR
# Procedure: a.1) Measurement of FXIa Inhibition
# The factor XIa inhibition of the substances according to the invention is determined using a biochemical test system which utilizes the reaction of a peptidic factor XIa substrate to determine the enzymatic activity of human factor XIa. Here, factor XIa cleaves from the peptic factor XIa substrate the C-terminal aminomethylcoumarin (AMC), the fluorescence of which is measured. The determinations are carried out in microtitre plates.
# In each case 1 μl of the diluted substance solutions is placed into the wells of white microtitre plates from Greiner (384 wells). […] After 15 min of incubation, the enzyme reaction is started by addition of 20 μl of the factor XIa substrate Boc-Glu(OBzl)-Ala-Arg-AMC dissolved in assay buffer (10 μM in assay buffer) from Bachem, the mixture is incubated at room temperature (22° C.) for 30 min and fluorescence is then measured (excitation: 360 nm, emission: 460 nm). The measured emissions of the test batches with test substance are compared to those of control batches without test substance (only dimethyl sulphoxide instead of test substance in dimethyl sulphoxide), and IC50 values are calculated from the concentration/activity relationships.
# plasma = assay: Determination of anticoagulatory activity: activated partial thromboplastin time (aPTT) in plasma; assay type: biochemical, human; details: concentration of test substance which brings about a 1.5-fold extension of the aPTT, C.K. Prest kit, 37° C.
# Procedure: a.4) Determination of Anticoagulatory Activity
# The anticoagulatory activity of the test substances is determined in vitro in human and animal plasma (for example mouse, rat, rabbit, pig and dog plasma). To this end, blood is drawn off in a mixing ratio of sodium citrate/blood of 1:9 using a 0.11 molar sodium citrate solution as receiver. Immediately after the blood has been drawn off, it is mixed thoroughly and centrifuged at about 4000 g for 15 minutes. The supernatant is pipetted off.
# The activated partial thromboplastin time (aPTT) is determined in the presence of varying concentrations of test substance or the corresponding solvent using a commercial test kit (C.K. Prest from Diagnostica Stago). The test compounds are incubated with the plasma and the PTT reagent (cephalin, kaolin) at 37° C. for 3 minutes. Coagulation is then started by addition of a 25 mM aqueous calcium chloride solution, and the time when coagulation occurs is determined. The concentration of test substance which brings about a 1.5-fold extension of the aPTT is determined.
# [1] = factor XIa from Kordia, 15 min preincubation, 30 min at 22° C., fluorescence, read-out: IC50
SMILES,IC50 (human factor XIa; [1]),Concentration for 1.5-fold aPTT extension (plasma),IC50 (human factor XIa)
"NC[C@H]1CC[C@H](C(=O)N[C@@H](Cc2ccc(-c3ccc(N4CCNCC4)cc3)cc2)C(=O)Nc2ccc(-c3nn[nH]n3)cc2)CC1 [Example 2, trans-4-(Aminomethyl)-N-[(2S)-1-oxo-3-[4′-(piperazin-1-yl)biphenyl-4-yl]-1-{[4-(2H-tetrazol-5-yl)phenyl]amino}propan-2-yl]cyclohexanecarboxamide hydrochloride]",4.3 nM,–,–
"CCN(CC)S(=O)(=O)c1ccc(-c2ccc(C[C@H](NC(=O)[C@H]3CC[C@H](CN)CC3)C(=O)Nc3ccc4c(=O)[nH][nH]c4c3)cc2)c(C)c1 [Example 17, trans-4-(Aminomethyl)-N-{(2S)-3-[4′-(diethylsulphamoyl)-2′-methylbiphenyl-4-yl]-1-oxo-1-[(3-oxo-2,3-dihydro-1H-indazol-6-yl)amino]propan-2-yl}cyclohexanecarboxamide hydrochloride]",3.5 nM,0.13 µmol/L,–
"Cc1cc(S(=O)(=O)NC2CCNCC2)ccc1-c1ccc(C[C@H](NC(=O)[C@H]2CC[C@H](CN)CC2)C(=O)Nc2ccc(-c3nnn[nH]3)cc2)cc1 [Example 1, trans-4-(Aminomethyl)-N-[(2S)-3-[2′-methyl-4′-(piperidin-4-ylsulphamoyl)biphenyl-4-yl]-1-oxo-1-{[4-(1H-tetrazol-5-yl)phenyl]amino}propan-2-yl]cyclohexanecarboxamide hydrochloride]",1.1 nM,0.1 µmol/L,–
"NC[C@H]1CC[C@H](C(=O)N[C@@H](Cc2ccc(-c3ccc(N4CCNCC4)cc3)cc2)C(=O)Nc2ccc(-c3noc(=O)[nH]3)cc2)CC1 [Example 6, trans-4-(Aminomethyl)-N-{(2S)-1-oxo-1-{[4-(5-oxo-4,5-dihydro-1,2,4-oxadiazol-3-yl)phenyl]amino}-3-[4′-(piperazin-1-yl)biphenyl-4-yl]propan-2-yl}cyclohexanecarboxamide hydrochloride]",24 nM,–,–
"Cc1cc(NC(=O)CNC(=O)CNC(=O)CN)ccc1-c1ccc(C[C@H](NC(=O)[C@H]2CC[C@H](CN)CC2)C(=O)Nc2ccc(-c3nn[nH]n3)cc2)cc1 [Example 9, Glycylglycyl-N-{4′-[(2S)-2-({[trans-4-(aminomethyl)cyclohexyl]carbonyl}amino)-3-oxo-3-{[4-(2H-tetrazol-5-yl)phenyl]amino}propyl]-2-methylbiphenyl-4-yl}glycinamide hydrochloride]",8.4 nM,–,–
"CN1CCN(c2ccc(-c3ccc(C[C@H](NC(=O)[C@H]4CC[C@H](CN)CC4)C(=O)Nc4ccc(-c5nn[nH]n5)cc4)cc3)cc2)CC1 [Example 4, trans-4-(Aminomethyl)-N-[(2S)-3-[4′-(4-methylpiperazin-1-yl)biphenyl-4-yl]-1-oxo-1-{[4-(2H-tetrazol-5-yl)phenyl]amino}propan-2-yl]cyclohexanecarboxamide hydrochloride]",18 nM,–,–
"Cc1cc(S(=O)(=O)NC2CCNC(C)C2)ccc1-c1ccc(C[C@H](NC(=O)[C@H]2CC[C@H](CN)CC2)C(=O)Nc2ccc(-c3nn[nH]n3)cc2)cc1 (stereo partly drawn) [Example 10, trans-4-(Aminomethyl)-N-[(2S)-3-(2′-methyl-4′-{[(2-methylpiperidin-4-yl]sulphamoyl}biphenyl-4-yl)-1-oxo-1-{[4-(2H-tetrazol-5-yl)phenyl]amino}propan-2-yl]cyclohexanecarboxamide hydrochloride]",1.1 nM,0.1 µmol/L,–
"COCCOc1ccc(-c2ccc(C[C@H](NC(=O)[C@H]3CC[C@H](CN)CC3)C(=O)Nc3ccc(-c4nn[nH]n4)cc3)cc2)cc1 [Example 3, trans-4-(Aminomethyl)-N-[(2S)-3-[4′-(2-methoxyethoxy)biphenyl-4-yl]-1-oxo-1-{[4-(2H-tetrazol-5-yl)phenyl]amino}propan-2-yl]cyclohexanecarboxamide hydrochloride]",8.1 nM,–,–
"Cc1cc(S(=O)(=O)NC(C)C)ccc1-c1ccc(C[C@H](NC(=O)[C@H]2CC[C@H](CN)CC2)C(=O)Nc2ccc3c(=O)[nH][nH]c3c2)cc1 [Example 14, trans-4-(Aminomethyl)-N-{(2S)-3-[4′-(isopropylsulphamoyl)-2′-methylbiphenyl-4-yl]-1-oxo-1-[(3-oxo-2,3-dihydro-1H-indazol-6-yl)amino]propan-2-yl}cyclohexanecarboxamide hydrochloride]",3.2 nM,–,–
"Cc1cc(S(=O)(=O)N[C@@H]2CCNC2)ccc1-c1ccc(C[C@H](NC(=O)[C@H]2CC[C@H](CN)CC2)C(=O)Nc2ccc(-c3nn[nH]n3)cc2)cc1 [Example 16, trans-4-(Aminomethyl)-N-[(2S)-3-{2′-methyl-4′-[(3R)-pyrrolidin-3-ylsulphamoyl]biphenyl-4-yl}-1-oxo-1-{[4-(2H-tetrazol-5-yl)phenyl]amino}propan-2-yl]cyclohexanecarboxamide hydrochloride]",1.3 nM,0.11 µmol/L,–
"COC(=O)c1ccc(-c2ccc(C[C@H](NC(=O)[C@H]3CC[C@H](CN)CC3)C(=O)Nc3ccc(-c4nn[nH]n4)cc3)cc2)cc1 [Example 7, Methyl 4′-[(2S)-2-({[trans-4-(aminomethyl)cyclohexyl]carbonyl}amino)-3-oxo-3-{[4-(2H-tetrazol-5-yl)phenyl]amino}propyl]biphenyl-4-carboxylic acid hydrochloride]",3.6 nM,–,–
"NC[C@H]1CC[C@H](C(=O)N[C@@H](Cc2ccc(-c3ccc(N4CCOCC4)cc3)cc2)C(=O)Nc2ccc(-c3nn[nH]n3)cc2)CC1 [Example 5, trans-4-(Aminomethyl)-N-[(2S)-3-[4′-(morpholin-4-yl)biphenyl-4-yl]-1-oxo-1-{[4-(2H-tetrazol-5-yl)phenyl]amino}propan-2-yl]cyclohexanecarboxamide hydrochloride]",–,–,5.7 nM

# Further lines, with some results ahead:
IC50 (human factor XIa; [1]),SMILES,Concentration for 1.5-fold aPTT extension (plasma),IC50 (human factor XIa)
2.3 nM,"NC[C@H]1CC[C@H](C(=O)N[C@@H](Cc2ccc(-c3ccc(S(=O)(=O)NCCO)cc3)cc2)C(=O)Nc2ccc(-c3nnc(Cl)[nH]3)cc2)CC1 [Example 19, trans-4-(Aminomethyl)-N-[(2S)-1-{[4-(5-chloro-4H-1,2,4-triazol-3-yl)phenyl]amino}-3-{4′-[(2-hydroxyethyl)sulphamoyl]biphenyl-4-yl}-1-oxopropan-2-yl]cyclohexanecarboxamide hydrochloride]",0.16 µmol/L,–
0.4 nM,"Cc1cc(S(=O)(=O)N(C)C)ccc1-c1ccc(C[C@H](NC(=O)[C@H]2CC[C@H](CN)CC2)C(=O)Nc2ccc(-c3nn[nH]n3)c(F)c2)cc1 [Example 24, trans-4-(Aminomethyl)-N-[(2S)-3-[4′-(dimethylsulphamoyl)-2′-methylbiphenyl-4-yl]-1-{[3-fluoro-4-(2H-tetrazol-5-yl)phenyl]amino}-1-oxopropan-2-yl]cyclohexanecarboxamide hydrochloride]",0.27 µmol/L,–
4.7 nM,"CC(=O)Nc1ccc(-c2ccc(C[C@H](NC(=O)[C@H]3CC[C@H](CN)CC3)C(=O)Nc3ccc(-c4nn[nH]n4)cc3)cc2)cc1F [Example 26, trans-N-[(2S)-3-(4′-Acetamido-3′-fluorobiphenyl-4-yl)-1-oxo-1-{[4-(2H-tetrazol-5-yl)phenyl]-amino}propan-2-yl]-4-(aminomethyl)cyclohexanecarboxamide hydrochloride]",0.4 µmol/L,–
5.2 nM,"CN(C)C1CCC(NS(=O)(=O)c2ccc(-c3ccc(C[C@H](NC(=O)[C@H]4CC[C@H](CN)CC4)C(=O)Nc4ccc5[nH]c(=O)[nH]c5c4)cc3)c(C(F)(F)F)c2)CC1 (stereo partly drawn) [Example 28, trans-4-(Aminomethyl)-N-{(2S)-3-[4′-{[4-(dimethylamino)cyclohexyl]sulphamoyl}-2′-(trifluoromethyl)biphenyl-4-yl]-1-oxo-1-[(2-oxo-2,3-dihydro-1H-benzimidazol-5-yl)amino]propan-2-yl}cyclohexanecarboxamide hydrochloride]",0.06 µmol/L,–
1.5 nM,"NC[C@H]1CC[C@H](C(=O)N[C@@H](Cc2ccc(-c3ccc(S(N)(=O)=O)cc3)cc2)C(=O)Nc2ccc(-c3nnc(Cl)[nH]3)cc2)CC1 [Example 22, trans-4-(Aminomethyl)-N-[(2S)-1-{[4-(3-chloro-4H-1,2,4-triazol-5-yl)phenyl]amino}-1-oxo-3-(4′-sulphamoylbiphenyl-4-yl)propan-2-yl]cyclohexanecarboxamide hydrochloride]",0.25 µmol/L,–
1.8 nM,"Cc1cc(S(N)(=O)=O)ccc1-c1ccc(C[C@H](NC(=O)[C@H]2CC[C@H](CN)CC2)C(=O)Nc2ccc(-c3nnc(Cl)[nH]3)cc2)cc1 [Example 20, trans-4-(Aminomethyl)-N-[(2S)-1-{[4-(3-chloro-4H-1,2,4-triazol-5-yl)phenyl]amino}-3-(2′-methyl-4′-sulphamoylbiphenyl-4-yl)-1-oxopropan-2-yl]cyclohexanecarboxamide hydrochloride]",0.18 µmol/L,–
